Values quoted from earlier work as cited in patent publication US6919088B2 (priority 2002, dated 2005).

What was measured:
[1] = system: decorin and procollagen-I; conditions: in vitro testing compared to retinoic acid
[2] = system: arachadonic acid in tissue lipids; conditions: rats, dietary triacylglycerols

CCCCCCCCCCC/C=C\CCCCC(=O)O [petroselinic acid, cis-6-octadecenoic acid]
upregulating and increasing synthesis of decorin and procollagen-I [1]: more effective than retinoic acid
levels of arachadonic acid in tissue lipids [2]: reduce the levels of arachadonic acid
